We go through twelve compounds from PubChem BioAssay (NCI).

Some test systems named below: HCC-2998 colon; OVCAR-3 ovarian; HOP-92 NSCLC; NCI-H460 lung; SNB-19 CNS; LOX IMVI melanoma; CCRF-CEM leukemia; EKVX NSCLC; SN12C renal; SNB-75 CNS.
Holding throughout (assay): NCI-60 cell line screen, 48 h

Each structure is given as a SMILES string.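 Compound exposure: 48 hours, 5 concentrations, 96-well plates. At the GI50, growth is halved. TGI: concentration producing complete growth inhibition.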 Some results are limits rather than exact numbers.

For `O=C(O)c1ccc(N(/C=C/C(=O)C(F)(F)F)Cc2ccc(Cl)cc2)cc1`, the GI50 in the experiment on HCC-2998 colon was 19.8 µM; with OVCAR-3 ovarian, 25.8 µM; in the experiment on HOP-92 NSCLC it was 19.5 µM; in the experiment with NCI-H460 lung it was over 100 µM; in the experiment on SNB-19 CNS, 47.9 µM; in the experiment on LOX IMVI melanoma, 21.4 µM. Further, the GI50 is 25.8 µM with CCRF-CEM leukemia, 19.6 µM in the experiment on EKVX NSCLC and 32.3 µM with SN12C renal. Further, the TGI was 44.3 µM in the experiment on HCC-2998 colon; 72.5 µM with OVCAR-3 ovarian; 82.4 µM in the experiment on HOP-92 NSCLC; over 100 µM in the experiment with NCI-H460 lung; over 100 µM with SNB-19 CNS; 51.8 µM in the experiment with LOX IMVI melanoma. Further, the TGI is over 100 µM in the experiment on CCRF-CEM leukemia, 47.9 µM in the experiment with EKVX NSCLC and over 100 µM in the experiment on SN12C renal.

For the compound `CC(=O)C1(O)CC2(c3ccccc3)C(=O)C1(c1ccccc1)C(c1ccccc1)=C2c1ccccc1` (stereo not given), the TGI in the experiment with OVCAR-3 ovarian, in the experiment with HOP-92 NSCLC, in the experiment on NCI-H460 lung, with SNB-19 CNS, in the experiment on LOX IMVI melanoma and in the experiment on CCRF-CEM leukemia was over 100 µM in each case. Further, the TGI with EKVX NSCLC, in the experiment with SNB-75 CNS and in the experiment with SN12C renal was over 100 µM each time.

For the compound `C/C(=N/NC(=O)c1ccccc1S(N)(=O)=O)C(CN1CCCCC1)C(C1=C(O)C2C=CC=CC2OC1=O)c1ccccc1` (stereo not given), the TGI with OVCAR-3 ovarian is over 100 µM; with HOP-92 NSCLC it was 77.1 µM; in the experiment with NCI-H460 lung, over 100 µM; in the experiment on SNB-19 CNS it was over 100 µM; in the experiment on LOX IMVI melanoma, over 100 µM; with CCRF-CEM leukemia it was 67.7 µM. Also, the TGI in the experiment on EKVX NSCLC, in the experiment on SNB-75 CNS and in the experiment with SN12C renal was over 100 µM in each case.

As to `COc1cccc2c1nc(C(F)F)n2-c1nc(-c2ccc(NS(=O)(=O)CCN(C)C)cc2)nc(N2CCOCC2)n1`, the GI50 is 0.0974 µM in the experiment with HCC-2998 colon; 0.105 µM in the experiment on OVCAR-3 ovarian; 0.0883 µM in the experiment on NCI-H460 lung; 1.28 µM in the experiment on SNB-19 CNS; 0.176 µM in the experiment on LOX IMVI melanoma; 0.257 µM with CCRF-CEM leukemia. In addition, the GI50 with EKVX NSCLC is 0.0712 µM; in the experiment with SNB-75 CNS it was 0.0246 µM; with SN12C renal, 0.305 µM. The TGI in the experiment on HCC-2998 colon was 17.4 µM; in the experiment with OVCAR-3 ovarian, 3.13 µM; with NCI-H460 lung, 1.33 µM; in the experiment on SNB-19 CNS it was over 100 µM; in the experiment on LOX IMVI melanoma, 2.13 µM; in the experiment on CCRF-CEM leukemia, 20.5 µM. For the same compound, the TGI in the experiment with EKVX NSCLC is 1.7 µM; in the experiment on SNB-75 CNS, 0.282 µM; with SN12C renal, over 100 µM.

As for `C=CC1(C)CCC2C(=CCC3C2(C)CC(O)C(O)C3(C)COC2OC(CO)C(O)C(O)C2O)C1` (stereo not given), the TGI in the experiment with HCC-2998 colon, with HOP-92 NSCLC, in the experiment on NCI-H460 lung, with SNB-19 CNS, in the experiment with LOX IMVI melanoma and in the experiment with CCRF-CEM leukemia was over 100 µM throughout. In addition, the TGI in the experiment on EKVX NSCLC, with SNB-75 CNS and in the experiment with SN12C renal was over 100 µM throughout.

Regarding `CC(=O)N1C/C(=C\c2ccccc2)C(=O)/C(=C/c2ccccc2)C1`, the TGI turned out to be 25 µM in the experiment with HCC-2998 colon; 16.4 µM with OVCAR-3 ovarian; 40.2 µM in the experiment with NCI-H460 lung; 31.5 µM in the experiment on SNB-19 CNS; 9.01 µM in the experiment with LOX IMVI melanoma; 11.3 µM in the experiment with CCRF-CEM leukemia. Further, the TGI with EKVX NSCLC came out at 51.3 µM; in the experiment with SNB-75 CNS, 40.9 µM; in the experiment with SN12C renal, 28.7 µM.

On to `N#CC(C(=O)CCCC(=O)Nc1ccccc1[N+](=O)[O-])c1c(Cl)cccc1Cl` (stereo not given), for which the TGI in the experiment with HCC-2998 colon, in the experiment on OVCAR-3 ovarian, with HOP-92 NSCLC, in the experiment with NCI-H460 lung, in the experiment on SNB-19 CNS and in the experiment on CCRF-CEM leukemia was over 100 µM throughout. Further, the TGI in the experiment on EKVX NSCLC, in the experiment on SNB-75 CNS and in the experiment on SN12C renal was over 100 µM each time.

Take `N/N=c1/nc2n(c3ncccc13)C=CNN2`: the TGI in the experiment on HCC-2998 colon, in the experiment with OVCAR-3 ovarian, in the experiment on HOP-92 NSCLC, with NCI-H460 lung, in the experiment with SNB-19 CNS and in the experiment on LOX IMVI melanoma was over 100 µM throughout. The TGI in the experiment on CCRF-CEM leukemia, in the experiment on EKVX NSCLC and with SN12C renal was over 100 µM in each case.

Take `C[C@@H]1C(=O)CC2C(C)(C)CCC[C@]2(C)[C@@]12CC[C@]1(C=COC1)O2` (stereo not given in full): the TGI in the experiment with HCC-2998 colon was over 100 µM; in the experiment with OVCAR-3 ovarian it was over 100 µM; in the experiment with HOP-92 NSCLC it was 48 µM; in the experiment on NCI-H460 lung, over 100 µM; in the experiment on SNB-19 CNS, over 100 µM; with LOX IMVI melanoma, over 100 µM. Also, the TGI in the experiment with CCRF-CEM leukemia was 70.8 µM; in the experiment on EKVX NSCLC it was over 100 µM; in the experiment on SN12C renal, 38 µM.

For the compound `NC(N)NCCCc1cn2c(n1)C1CCCN1C(=O)C2Cc1ccccc1` (stereo not given), the TGI with HCC-2998 colon, with OVCAR-3 ovarian, in the experiment with NCI-H460 lung, in the experiment with SNB-19 CNS, with LOX IMVI melanoma and in the experiment with CCRF-CEM leukemia was over 100 µM each time. For the same compound, the TGI with EKVX NSCLC, in the experiment on SNB-75 CNS and in the experiment with SN12C renal was over 100 µM throughout.

As for `Cc1c(C(Cc2ccccc2N(C)C(=O)/C=C\C(=O)O)c2c[nH]c3ccccc23)c2ccccc2n1C` (stereo not given), the TGI in the experiment with HCC-2998 colon is 30.9 µM; in the experiment with OVCAR-3 ovarian it was 27.7 µM; in the experiment on NCI-H460 lung it was 32.7 µM; in the experiment on SNB-19 CNS, 39.4 µM; in the experiment with LOX IMVI melanoma it was 29.2 µM; in the experiment with CCRF-CEM leukemia, 37.1 µM. The TGI in the experiment with EKVX NSCLC was determined as 33.1 µM; in the experiment with SNB-75 CNS it was 33.7 µM; in the experiment on SN12C renal, 30 µM.

On to `O=C1NN2CC(c3ccccc3)=NN=C2c2ccccc21`, for which the GI50 in the experiment on HCC-2998 colon was 15.6 µM; in the experiment on OVCAR-3 ovarian, 20.1 µM; in the experiment on NCI-H460 lung, 30.3 µM; with SNB-19 CNS, 20.5 µM; with LOX IMVI melanoma it was 22.6 µM; in the experiment on CCRF-CEM leukemia, 22.9 µM. Moreover, the GI50 in the experiment on EKVX NSCLC is 31.3 µM; with SNB-75 CNS it was over 100 µM; in the experiment on SN12C renal it was 29.1 µM. Moreover, the TGI is 36.2 µM with HCC-2998 colon; 48.2 µM with OVCAR-3 ovarian; 92.6 µM in the experiment on NCI-H460 lung; 44.7 µM with SNB-19 CNS; 47 µM in the experiment with LOX IMVI melanoma; 55.7 µM in the experiment on CCRF-CEM leukemia. In addition, the TGI with EKVX NSCLC is over 100 µM; in the experiment with SNB-75 CNS, over 100 µM; in the experiment with SN12C renal, 78.3 µM.
